Assay [1] relates to Kasumi-1 AML cancer cell line. Description: Kasumi-1 AML cell line proliferation assay (Cell-MTS assay). The assay is classed as cell-based. The following applies: Homo sapiens, Kasumi-1 cells, 168 hours. The text has this: Colorimetric cellular assay to assess the ability of LSD-1 small molecule inhibitors to effect the proliferation of the established AML cancer cell line Kasumi-1.
This Cell-MTS assay is a 7-day plate based colorimetric assay which quantifies the amount of newly generated NADH in the presence and absence of test compound. These NADH levels are used as a proxy for the quantification of cancer cell proliferation.
The established cancer cell line Kasumi-1 with a verified p53 mutation were purchased from American Type Culture Collection (ATCC) and routinely passaged according to ATCC published protocols. For routine assay these cells were seeded at a density of 20,000 cells per 96-well. 24 hours after plating, cells received an 11 point dilution of test compound with final concentration ranges from 100 LM to 2.0 nM. Cells are incubated in the presence of compound for 168 hours at 37° C., 5% CO2. At the end of this compound incubation period, 80 μl of media is removed and 20 μL of CellTiter 96® AQueous Non-Radioactive Cell Proliferation Assay solution (Promega) is added. The cells are incubated until the OD490 is >0.6. IC50 values are calculated using the IDBS XLfit software package and include background subtracted OD490 values and normalization to DMSO controls.
Table 5 provides the Kasumi-1 cellular IC50 values of various substituted heterocyclic compounds disclosed herein.
Background: Formazan colour is commonly taken as a measure of viable cells.

For assay [2], the system named is CD11b expression in THP-1 (AML) cells. Description: LSD1 CD11b cellular assay (flow cytometry). It is filed as cell-based. The following applies: Homo sapiens, 96 h, THP-1 cells, 4 days. The method in brief: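 THP-1 cells were exposed to serially diluted compounds (0.2% DMSO final) for 4 days at 37 °C. CD11b expression was measured by flow cytometry with DAPI staining. The percent of CD11b-positive cells per concentration gave the IC50 curve.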
On the technique in general: In flow cytometry, cells or beads pass a laser one at a time.

For assay [3], the target named is full-length human LSD1 (Homo sapiens (Human), UniProt O60341). Description: In vitro enzyme inhibition assay LSD-1 (TR-FRET). The assay is classed as biochemical. The following applies: H3K4me1-biotin peptide. The method in brief:
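Demethylase activity of full-length human LSD1 was detected by TR-FRET after 1 hour incubation at room temperature. Excitation was at 320 nm, with emission at 615 nm and 665 nm. IC50 values were derived from the inhibition data.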

The term IC50 denotes the concentration that gives 50% inhibition. A lower IC50 goes with greater potency in that assay. In assay [1], `COc1ccc(-n2c(-c3ccc(C#N)c(F)c3)nc(C(=O)N3CCC[C@@H](N)C3)c2C)cc1` [Example 12, 4-[4-[(3R)-3-aminopiperidine-1-carbonyl]-1-(4-methoxyphenyl)-5-methylimidazol-2-yl]-2-fluorobenzonitrile] gave an IC50 of at most 100 nM.

On to `COc1ccc(-n2c(-c3ccc(C#N)c(F)c3)nc(C(=O)N3CCC[C@@H](N)C3)c2C)cc1F` [Example 16, 4-[4-[(3R)-3-aminopiperidine-1-carbonyl]-1-(3-fluoro-4-methoxyphenyl)-5-methylimidazol-2-yl]-2-fluorobenzonitrile], for which the IC50 in assay [1] was at most 100 nM.

As for `Cc1c(C(=O)N2CCC3(CCCN3)C2)nc(-c2ccc(C#N)c(F)c2)n1-c1ccc2nn(C)cc2c1` (centres unmarked) [Example 90, 4-[4-(1,7-Diazaspiro[4.4]nonane-7-carbonyl)-5-methyl-1-(2-methylindazol-5-yl)imidazol-2-yl]-2-fluorobenzonitrile], the values for the half-inhibitory concentration (IC50) in assay [2] and in assay [3] were 100 to 1000 nM and under 100 nM, respectively.

For `Cc1c(C(=O)N2CCC3(CNC3)C2)nc(-c2ccc(C#N)c(F)c2)n1-c1ccc2nn(C)cc2c1` [Example 91, 4-[4-(2,6-Diazaspiro[3.4]octane-6-carbonyl)-5-methyl-1-(2-methylindazol-5-yl)imidazol-2-yl]-2-fluorobenzonitrile], the concentration for half-maximal inhibition (IC50) in assay [2] and in assay [3] was under 100 nM throughout.

For `Cc1c(C(=O)N2CCC3(CCN3)C2)nc(-c2ccc(C#N)c(F)c2)n1-c1ccc2c(cnn2C)c1` (centres unmarked) [Example 92, 4-[4-(1,7-Diazaspiro[3.4]octane-7-carbonyl)-5-methyl-1-(1-methylindazol-5-yl)imidazol-2-yl]-2-fluorobenzonitrile], the results for the IC50 in assay [2] and in assay [3] were 100 to 1000 nM and under 100 nM, respectively.

Turning to `Cn1nc2ccc(-n3cc(C(=O)N4CCC5(CCN5)C4)nc3-c3ccc(C#N)c(F)c3)cc2c1Cl` (centres unmarked) [Example 93, 4-[1-(3-Chloro-2-methylindazol-5-yl)-4-(1,7-diazaspiro[3.4]octane-7-carbonyl)imidazol-2-yl]-2-fluorobenzonitrile], the IC50 in assay [2] was 100 to 1000 nM; in assay [3], under 100 nM.

For the compound `Cc1c(C(=O)N2CC[C@H](N(C)C)C2)nc(-c2ccc(C#N)c(F)c2)n1-c1ccc2c(cnn2C)c1` [Example 95, 4-[4-[(3S)-3-(Dimethylamino)pyrrolidine-1-carbonyl]-5-methyl-1-(1-methylindazol-5-yl)imidazol-2-yl]-2-fluorobenzonitrile], the IC50 in assay [2] and in assay [3] was under 100 nM each time.

Consider `CN[C@H]1CCCN(C(=O)c2nc(-c3ccc(C#N)c(F)c3)n(-c3ccc4nn(C)cc4c3)c2C)C1` [Example 97, 2-Fluoro-4-[5-methyl-4-[(3S)-3-(methylamino)piperidine-1-carbonyl]-1-(2-methylindazol-5-yl)imidazol-2-yl]benzonitrile], for which the IC50 in assay [2] and in assay [3] was under 100 nM in each case.

As for `CN[C@@H]1CCCN(C(=O)c2nc(-c3ccc(C#N)c(F)c3)n(-c3ccc4nn(C)cc4c3)c2C)C1` [Example 98, 2-Fluoro-4-[5-methyl-4-[(3R)-3-(methylamino)piperidine-1-carbonyl]-1-(2-methylindazol-5-yl)imidazol-2-yl]benzonitrile], the IC50 in assay [2] and in assay [3] was under 100 nM in each case.

In the case of `CN(C)[C@H]1CCN(C(=O)c2cn(-c3ccc4nn(C)cc4c3)c(-c3ccc(C#N)c(F)c3)n2)C1` [Example 99, 4-[4-[(3S)-3-(Dimethylamino)pyrrolidine-1-carbonyl]-1-(2-methylindazol-5-yl)imidazol-2-yl]-2-fluorobenzonitrile], the concentration for half-maximal inhibition (IC50) in assay [2] is 100 to 1000 nM; in assay [3], under 100 nM.

Turning to `CN(C)[C@H]1CCN(C(=O)c2nc(-c3ccc(C#N)c(F)c3)n(-c3ccc4nn(C)cc4c3)c2Cl)C1` [Example 100, 4-[5-Chloro-4-[(3S)-3-(dimethylamino)pyrrolidine-1-carbonyl]-1-(2-methylindazol-5-yl)imidazol-2-yl]-2-fluorobenzonitrile], the IC50 in assay [2] is 100 to 1000 nM; in assay [3] it was under 100 nM.

Take `CN(C)[C@H]1CCN(C(=O)c2nc(-c3ccc(C#N)c(F)c3)n(-c3ccc4nn(C)c(Cl)c4c3)c2Cl)C1` [Example 101, 4-[5-Chloro-1-(3-chloro-2-methylindazol-5-yl)-4-[(3S)-3-(dimethylamino)pyrrolidine-1-carbonyl]imidazol-2-yl]-2-fluorobenzonitrile]: the IC50 in assay [2] and in assay [3] was under 100 nM throughout.

As for `Cc1c2cc(-n3c(-c4ccc(C#N)c(F)c4)nc(C(=O)N4CC[C@H](N(C)C)C4)c3C)ccc2nn1C` [Example 102, 4-[4-[(3S)-3-(Dimethylamino)pyrrolidine-1-carbonyl]-1-(2,3-dimethylindazol-5-yl)-5-methylimidazol-2-yl]-2-fluorobenzonitrile], the IC50 in assay [2] and in assay [3] was under 100 nM each time.

With `CN[C@H]1CCN(C(=O)c2nc(-c3ccc(C#N)c(F)c3)n(-c3ccc4nn(C)c(C)c4c3)c2C)C1` [Example 103, 4-[1-(2,3-Dimethylindazol-5-yl)-5-methyl-4-[(3S)-3-(methylamino)pyrrolidine-1-carbonyl]imidazol-2-yl]-2-fluorobenzonitrile], the concentration for half-maximal inhibition (IC50) in assay [2] and in assay [3] was under 100 nM in each case.

On to `Cc1c2cc(-n3c(-c4ccc(C#N)c(F)c4)nc(C(=O)N[C@@H]4CCCNC4)c3C)ccc2nn1C` [Example 104, 2-(4-Cyano-3-fluorophenyl)-1-(2,3-dimethylindazol-5-yl)-5-methyl-N-[(3R)-piperidin-3-yl]imidazole-4-carboxamide], for which the IC50 in assay [2] and in assay [3] was under 100 nM each time.

Take `CN[C@@H]1CCCN(C(=O)c2nc(-c3ccc(C#N)c(F)c3)n(-c3ccc4nn(C)c(C)c4c3)c2C)C1` [Example 105, 4-[1-(2,3-Dimethylindazol-5-yl)-5-methyl-4-[(3R)-3-(methylamino)piperidine-1-carbonyl]imidazol-2-yl]-2-fluorobenzonitrile]: the IC50 in assay [2] and in assay [3] was under 100 nM each time.

For `Cc1c(C(=O)N2CC[C@H](N(C)C)C2)nc(-c2ccc(C#N)c(F)c2)n1-c1cc2c(Cl)n(C)nc2cc1F` [Example 110, 4-[1-(3-Chloro-6-fluoro-2-methylindazol-5-yl)-4-[(3S)-3-(dimethylamino)pyrrolidine-1-carbonyl]-5-methylimidazol-2-yl]-2-fluorobenzonitrile], the IC50 in assay [2] and in assay [3] was under 100 nM throughout.

Regarding `CN[C@H]1CCN(C(=O)c2nc(-c3ccc(C#N)c(F)c3)n(-c3cc4c(Cl)n(C)nc4cc3F)c2C)C1` [Example 111, 4-[1-(3-Chloro-6-fluoro-2-methylindazol-5-yl)-5-methyl-4-[(3S)-3-(methylamino)pyrrolidine-1-carbonyl]imidazol-2-yl]-2-fluorobenzonitrile], the IC50 in assay [2] and in assay [3] was under 100 nM throughout.

On to `CN[C@H]1CCN(C(=O)c2cn(-c3ccc4nn(C)c(Cl)c4c3)c(-c3ccc(C#N)c(F)c3)n2)C1` [Example 113, 4-[1-(3-Chloro-2-methylindazol-5-yl)-4-[(3S)-3-(methylamino)pyrrolidine-1-carbonyl]imidazol-2-yl]-2-fluorobenzonitrile], for which the IC50 in assay [2] and in assay [3] was under 100 nM each time.

For `Cn1nc2ccc(-n3cc(C(=O)N[C@@H]4CCCNC4)nc3-c3ccc(C#N)c(F)c3)cc2c1Cl` [Example 114, 1-(3-Chloro-2-methylindazol-5-yl)-2-(4-cyano-3-fluorophenyl)-N-[(3R)-piperidin-3-yl]imidazole-4-carboxamide], the half-inhibitory concentration (IC50) in assay [2] and in assay [3] was under 100 nM each time.

`CN[C@@H]1CCCN(C(=O)c2cn(-c3ccc4nn(C)c(Cl)c4c3)c(-c3ccc(C#N)c(F)c3)n2)C1` [Example 115, 4-[1-(3-Chloro-2-methylindazol-5-yl)-4-[(3R)-3-(methylamino)piperidine-1-carbonyl]imidazol-2-yl]-2-fluorobenzonitrile]: the IC50 in assay [2] and in assay [3] was under 100 nM in each case.

`CN[C@H]1CCCN(C(=O)c2cn(-c3ccc4nn(C)c(Cl)c4c3)c(-c3ccc(C#N)c(F)c3)n2)C1` [Example 116, 4-[1-(3-Chloro-2-methylindazol-5-yl)-4-[(3S)-3-(methylamino)piperidine-1-carbonyl]imidazol-2-yl]-2-fluorobenzonitrile]: the half-inhibitory concentration (IC50) in assay [2] and in assay [3] was under 100 nM throughout.

In the case of `Cc1c(C(=O)N[C@@H]2CCCNC2)nc(-c2ccc(C#N)c(F)c2)n1-c1ccc2nn(C)c(Cl)c2c1` [Example 117, 1-(3-Chloro-2-methylindazol-5-yl)-2-(4-cyano-3-fluorophenyl)-5-methyl-N-[(3R)-piperidin-3-yl]imidazole-4-carboxamide], the IC50 in assay [2] and in assay [3] was under 100 nM throughout.

The values above are taken from patent US10626103B2, “Inhibitor of lysine specific demethylase-1” (CELGENE QUANTICEL RESEARCH, INC., priority 2014, dated 2020).
